Measured values published in US12298319B2, “Method for measuring alpha value of muscarinic M1 receptor positive allosteric modulators” (Takeda Pharmaceutical Company Limited, priority 2017, dated 2025).
Structures can show the parent of a compound that is named as a salt.

How the values were obtained:
[1] = tested on: scopolamine-induced cognitive deficits in rats; test: Novel object recognition task (NORT), scopolamine-induced memory deficits; type: in vivo, rat
Description: On the day before testing, Long Evans rats were allowed to habituate to the behavioral test room environment for over 1 h, and then they were allowed to habituate to the empty test box (a gray-colored polyvinyl chloride box (40×40×50 cm)) for 10 min individually. Testing was comprised of two 3-min trials called the acquisition and the retention trials. These trials were separated by a given inter-trial interval (ITI). On the testing day, in the acquisition trial, rats were allowed to explore two identical objects (A1 and A2) for 3 min. In the retention trial, rats were again allowed to explore a familiar object (A3) and a novel object (B) for 3 min. The object exploration was defined as rats' licking, sniffing or touching the object with limbs while sniffing. Leaning against the object to look upward, standing or sitting on the object was excluded. The exploration time of each object (A1, A2, A3 and B) in each trial was measured manually. Novel discrimination index (NDI) was calculated using the following equation: novel object interaction/total interaction×100(%).
The acquisition and the retention trials were separated by 4 h ITI. […] Scopolamine (0.1 mg/kg) was administered subcutaneously 30 min prior to the acquisition trial.
(§1) The acquisition and the retention trials were separated by 4 h ITI.
as §1

[2] = tested on: layer 5 pyramidal neurons; test: Electrophysiology, current clamp of layer 5 pyramidal neurons in mPFC slices; type: cell-based, mouse; settings: bath application, Compound D at 10 μM
Description: Experiments were performed on coronal brain slices of the medial prefrontal cortex (mPFC) from 4-week-old male C57BL/6 mice. The animals were quickly sacrificed and the brain was placed in an ice-cold NMDG artificial cerebrospinal fluid (ACSF) (in mM): NMDG, 92; KCl, 2.5; CaCl2, 0.5; NaH2PO4, 1.25; MgSO4, 6; NaHCO3, 30; glucose, 25; HEPES, 20; thiourea, 2; Na-ascorbate, 5; and Na-pyruvate, 3) (Ting J. T. et al., Methods Mol Biol. 2014; 1183:221-42). Slices were cut at a thickness of 300 μm with a vibroslicer. Slices were initially transferred to a holding chamber containing NMDG aCSF for 15 minutes at 34° C. Slices were then transferred to a room temperature holding chamber for at least 1 h containing HEPES aCSF (in mM): NMDG, 92; KCl, 2.5; CaCl2, 2; NaH2PO4, 1.25; MgSO4, 2; NaHCO3, 30; glucose, 25; HEPES, 20; thiourea, 2; Na-ascorbate, 5; and Na-pyruvate, 3). Subsequently, the slices were transferred to the recording chamber, in which they were submerged and perfused with aCSF containing the following (in mM): NaCl, 124; KCl, 5; NaH2PO4, 1.2; MgCl2, 1.5; CaCl2, 2.5; glucose, 10; and NaHCO3, 24), at a flow rate of 1-2 ml/min. All buffers were continuously bubbled and saturated with carbogen (95% O2/5% CO2). Current clamp recordings were carried out at 32-33° C. from visually identified pyramidal neurons from layer 5 using a borosilicate pipette (5-7 MΩ) filled with intracellular solution (in mM): K-gluconate, 135; KCl, 4; HEPES, 10; EGTA, 0.2; MgATP, 4; Na2GTP, 0.3; pH 7.3 with KOH). Signals were acquired using a Multiclamp 700B amplifier and a Digidata 1440A interface board (Molecular Devices Japan, Tokyo, Japan), filtered between 2 kHz, sampled at 10 kHz, and analyzed with pClamp10 software.
M1Rs are known to contribute to the three cholinergic effects in layer 5 pyramidal neurons: the resting membrane potential (RMP) and physiological responses such as the after hyperpolarization (AHP) the after depolarization (ADP) that typically follow brief periods of action potential generation (Gulledge et al., J. Neurosci. 2009 Aug. 5; 29(31): 9888-9902). To investigate effects of M1 PAMs with different n value on brain function, cholinergic excitation by Compound D and Compound C were assessed. First, the muscarinic receptor agonist carbachol ([…] for 10 min) was tested by bath application (FIG. 13-A, FIG. 13-B, FIG. 13-C).

[3] = tested on: rats; test: Assessment of cholinergic side effects in rats
Description: SD Rats were placed individually into observation cages and acclimated for at least 1 h. […] The severity of diarrhea was scored as follows: 0, normal pellets; 1, wet but formed feces; 2, swollen or mucous feces; 3, severe watery diarrhea. For diarrhea, the number of rats and mice, in which more than or equal to 2 was scored, was counted. For fasciculation, the number of rats with marked fasciculation of both the upper and lower limbs was counted. For lacrimation, the number of rats, in which moderate to marked discharge (severer lacrimation than fluid around eyes) was induced, was counted. For salivation, the number of rats with severe salivation, but not just noticeably wet around mouth, was induced was counted. The maximum score during the observation was adopted.
(§2) For diarrhea, the number of rats scored more than or equal to 2 was counted. For fasciculation, the number of rats with marked fasciculation of both the upper and lower limbs was counted. For lacrimation, the number of rats in which moderate to marked discharge (severer lacrimation than fluid around eyes) was counted. For salivation, the number of rats with severe salivation, but not just noticeably wet around mouth, was counted. The maximum score during the observation was adopted. Data were presented as the number of incidence per total rats.
as §2, with “in which loose” for “scored more than”, “mucous stool, or diarrhea was induced” for “equal to 2”, “(severe” for “(severer”, “eyes) was caused” for “eyes)”, “mouth” for “mouth,”

[4] = carbachol 10 M [sic] for 10 min

CCN(C)C(=O)Oc1cccc([C@H](C)N(C)C)c1 [Rivastigmine, rivastigmine]
NDI ([1]; scopolamine-treated rats, rivastigmine 0.1 mg/kg i.p. alone, Example 31): 53.9%

C[N+](C)(C)CCOC(N)=O [Carbachol, carbachol]
after hyperpolarization (AHP) [2, 4]: suppressed AHP | resting membrane potential (RMP) [2, 4]: induced depolarization of the RMP | after depolarization (ADP) ([2]; carbachol for 10 min as printed): produced an ADP potential

COc1cc2c(cc1OC)C(=O)C(CC1CCN(Cc3ccccc3)CC1)C2 (stereo not shown) [Donepezil, Donepezil hydrochloride]
NDI in NORT, scopolamine-induced deficits ([1]; 0.3 and 1 mg/kg p.o., rats, P≤0.025): significantly increased NDI | minimal efficacy dose in rats (cognitive improvement) ([1]; NORT, scopolamine-treated rats, p.o.): 0.3 mg/kg | NDI ([1]; scopolamine-treated rats, 0.1 mg/kg p.o. alone, Example 28): 52.7% | NDI ([1]; scopolamine-treated rats, donepezil 0.1 mg/kg p.o. alone, Example 29): 49.5% | cholinergic side effects in addition to diarrhea ([3]; 10 mg/kg p.o., rats): induced salivation, myosis, and fasciculation | diarrhea induction in rats (score) ([3]; P≤0.025 at 10 and 30 mg/kg p.o.): induced diarrhea dose-dependently
